Counter-ions that a name gives are not always drawn.
Tests used:
[1] = system: full length SMN2 minigene mRNA (FL SMN2mini) in HEK293H cells stably transfected with the SMN2-A minigene construct; assay: SMN2 minigene mRNA splicing RT-qPCR assay in cultured cells; type: cell-based; conditions: Homo sapiens, HEK293-H, 24 hours, 7-point concentration curve, concentration giving 1.5-fold FL SMN2mini mRNA vs vehicle, read-out: EC1.5x minigene (EC1.5x concentration for production of full length SMN2 minigene mRNA)
How it was run: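 Stably transfected HEK293H cells, 10,000/well in DMEM/10% FBS with hygromycin, attached 6 h, then received compound for 24 h at 37° C in duplicate at 7 concentrations. Multiplex RT-qPCR with GAPDH used primers that detect only the minigene. An efficiency-corrected ΔΔCt, GAPDH- and vehicle-normalized, gave EC1.5x concentrations.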

SMN protein = SMN protein assay (HTRF) in cultured SMA patient fibroblast cells; type: cell-based; conditions: SMA Type 1 human fibroblasts GM03813, 48 hours; for EC1.5x SMN protein (EC1.5x concentration for SMN protein expression): 7-point concentration curve, concentration giving 1.5 times SMN protein vs vehicle; for max. fold increase (maximum fold increase of SMN protein): 7-point concentration data, fold vs vehicle control
How it was run: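 SMA patient fibroblasts seeded at 5,000 cells/well, treated 48 h at 37 °C in triplicate per concentration (7-point series). Lysed in RIPA with protease inhibitors; SMN read by HTRF (anti-SMN d2/kryptate, overnight RT), 665/620 nm ratio. ΔF vs blank, expressed as fold over vehicle; EC1.5x and maximum fold increase derived.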

Compound | EC (1.5-fold) [1] | EC1.5x SMN protein (EC1.5x concentration for SMN protein expression) (SMN protein) | max. fold increase (maximum fold increase of SMN protein) (SMN protein)
Cc1cn2cc(NC(=O)c3ccc(N4CCNC(C)C4)nc3)cc(Cl)c2n1 (racemic) [Example 55, rac-N-(8-chloro-2-methylimidazo[1,2-a]pyridin-6-yl)-6-(3-methylpiperazin-1-yl)nicotinamide dihydrochloride] | 0.141 µM | 0.7112 µM | 1.8752
Cc1cn2cc(NC(=O)c3ccc(N4CC5(CNC5)C4)nc3)ccc2n1 [Example 16, N-(2-methyl-imidazo[1,2-a]-pyridin-6-yl)-6-(2,6-diazaspiro-[3,3]heptan-2-yl)nicotinamide hydrochloride] | 1.04 µM | 1.1992 µM | 1.6598
Cc1nc2ccc(NC(=O)c3ccc(N4CCNC(C)C4)cc3F)cc2o1 (racemic) [Example 38, rac-2-fluoro-N-(2-methylbenzo[d]-oxazol-6-yl)-4-(3-methylpiperazin-1-yl)benzamide dihydrochloride] | 0.472 µM | 0.6124 µM | 1.8706
Cc1cn2cc(NC(=O)c3ccc(N4CCN5CCC[C@H]5C4)nc3)cc(C(F)(F)F)c2n1 [Example 21, (S)-6-(hexahydro-pyrrolo[1,2-a]-pyrazin-2(1H)-yl)-N-(2-methyl-8-(trifluoromethyl)-imidazo[1,2-a]-pyridin-6-yl)-nicotinarnide] | 0.386 µM | 0.6542 µM | 1.7755
Cc1cn2cc(NC(=O)c3c(F)cc(N4CCNC(C)C4)cc3F)cc(Cl)c2n1 (racemic) [Example 57, rac-N-(8-chloro-2-methylimidazo[1,2-a]pyridin-6-yl)-2,6-difluoro-4-(3-methylpiperazin-1-yl)benzamide trihydrochloride] | 0.0262 µM | 1.7363 µM | 1.578
Cc1cn2cc(NC(=O)c3c(F)cc(N4CCNC(C)C4)cc3F)cc(F)c2n1.Cl (racemic) [Example 49, rac-2,6-difluoro-N-(8-fluoro-2-methyl-imidazo[1,2-a]-pyridin-6-yl)-4-(3-methylpiperazin-1-yl)benzamide hydrochloride] | 0.0107 µM | 0.1733 µM | 1.658
Cc1cn2cc(NC(=O)c3ccc(N4CCNC(C)C4)nc3)nc2c(C)n1 (racemic) [Example 7, rac-N-(6,8-dimethyl-imidazo[1,2-a]-pyrazin-2-yl)-6-(3-methyl-piperazin-1-yl)nicotinamide] | 0.142 µM | 0.2834 µM | 1.7936
COc1cc(N2CCNCC2)ncc1C(=O)Nc1cc(F)c2nc(C)cn2c1 [Example 69, N-(8-fluoro-2-methylimidazo[1,2-a]pyridin-6-yl)-4-methoxy-6-(piperazin-1-yl)nicotinamide] | 0.0308 µM | 0.1645 µM | 1.7612
Cc1cn2cc(NC(=O)c3ccc(N4CCNCC4)c(C)c3)cc(F)c2n1 [Example 66, N-(8-fluoro-2-methylimidazo[1,2-a]pyridin-6-yl)-3-methyl-4-(piperazin-1-yl)benzamide] | 0.518 µM | 0.6108 µM | 1.5438
Cc1cn2cc(NC(=O)c3ccc(N4CCNC(C)C4)cc3F)cc(C)c2n1 (racemic) [Example 37, rac-N-(2,8-dimethyl-imidazo[1,2-a]-pyridin-6-yl)-2-fluoro-4-(3-methylpiperazin-1-yl)benamide dihydrochloride] | 0.028 µM | 0.1196 µM | 1.7758
Cc1cn2cc(NC(=O)c3cnc(N4CCNC(C)C4)c(F)c3)cc(Cl)c2n1 (racemic) [Example 53, rac-N-(8-chloro-2-methylimidazo-[1,2-a]pyridin-6-yl)-5-fluoro-6-(3-methylpiperazin-1-yl)nicotinamide hydrochloride] | 0.21 µM | 0.7455 µM | 1.6563
Cc1cn2cc(NC(=O)c3ccc(N4CCNCC4)cc3)nc2c(C)n1 [Example 1, N-(6,8-dimethylimidazo[1,2-a]pyrazin-2-yl)-4-(piperazin-1-yl)benzamide] | 0.0316 µM | 0.7747 µM | 1.6736
Cc1cn2cc(NC(=O)c3ccc(C4=CCNCC4)cn3)ccc2n1 [Example 63, N-(2-methyl-imidazo[1,2-a]-pyridin-6-yl)-5-(1,2,3,6-tetra-hydropyridin-4-yl)picolinamide dihydrochloride] | 0.16 µM | 1.0431 µM | 1.6807
Cc1cn2cc(NC(=O)c3ccc(C4CCN(C)CC4)nc3)ccc2n1 [Example 78, N-(2-methylimidazo[1,2-a]pyridin-6-yl)-6-(1-methylpiperidin-4-yl)nicotinamide] | 0.622 µM | 1.013 µM | 1.7897
Cc1cn2cc(NC(=O)c3ccc(N4CCNC(C)C4)cc3F)cc(F)c2n1 (racemic) [Example 39, rac-2-fluoro-N-(8-fluoro-2-methyl-imidazo[1,2-a]-pyridin-6-yl)-4-(3-methylpiperazin-1-yl)benzamide dihydrochloride] | 0.0168 µM | 0.0147 µM | 1.8791
Cc1cn2cc(NC(=O)c3ncc(N4CCNC(C)C4)cc3F)cc(Cl)c2n1 (racemic) [Example 56, rac-N-(8-chloro-2-methylimidazo[1,2-a]pyridin-6-yl)-3-fluoro-5-(3-methyl-piperazin-1-yl)-picolinamide dihydrochloride] | 0.017 µM | 0.07 µM | 1.7299

— patent US10501482B2, “Compounds for treating spinal muscular atrophy” (Hoffmann-La Roche Inc., priority 2013, dated 2019)
